Laboratory results reported in patent US5652249A, “Method of treating depression” (Nippon Shinyaku Co., Inc., priority 1993, dated 1997).

Legend:
rats [1] = test: Rat forced swimming test (immobility time); assay type: in vivo, rat (male Wistar); conditions: for Immobility Time (mean ± S.E.): N=10; for Effect on the immobility time in the forced swimming test (in words): Dunnett's test vs control
Procedure: (§1) Particularly the forced swimming test has been used most widely in the evaluation of antidepressant drugs in animals. Reportedly the immobility time-shortening activity of an antidepressant drug as assayed by this test is highly correlated with the clinical efficacy of the drug in man (F. Borsini and A. Meli, 1988).
Five-week old male Wistar rats were used. A cylindrical vessel measuring 18 cm in diameter and 40 cm deep was filled with 25° C. of water to the level of 17 cm from the bottom, and the rat was forced to swim in the water for 15 minutes (Session I). After 24 hours, the rat was put again in the vessel for 5 minutes and the duration of time the rat remained motionless without swimming was determined (Session II). The drug was orally administered twice, viz. at completion of Session I and 1 hr before the start of Session II. The drug was suspended in 0.5% methylcellulose (MC) solution for the administration. The control group was orally given the same volume of 0.5% MC solution. Compound No. 2 was used as the test drug. As reference drugs, desipramine, which is a representative antidepressant, and aniracetam and idebenone, both of which are enhancers of cerebral circulation and metabolism, were used. The statistical significance of between groups differences was analyzed by Dunnett's test.

rats [2] = test: Rat learned helplessness test (escape failures); assay type: in vivo; conditions: for No. of escape failures (mean ± S.E.): oral once daily for 10 days, ECS group, 40 avoidance tasks, N=10
Excerpt: as §1
The rat was orally administered with the drug once daily for 10 consecutive days. On days 8-10 of administration, the rat was placed in a shuttle box in which it received 100 unescapable electroconvulsive shocks (ECS) daily. The day after the last ECS session, the active avoidance task was given 40 times and the number of failures to escape was recorded. Compound No. 2 was used as the test drug. As a reference drug, desipramine was used.

[3] = Acute toxicity testing, oral, mice; design: species or system mouse (male ddy-strain); conditions: mouse, in vivo, male ddy mice, 2 weeks observation, probit method
Procedure: (1) Groups of five male ddy-strain mice aged 6-7 weeks were used. The animals were fasted for 16-18 hours (from the previous day) and then orally given the test compound. The LD50 values were calculated by the probit method based on the mortality observed within the succeeding period of 2 weeks.

[4] = Acute toxicity testing, oral, rats; design: species or system rat (male SD-strain); conditions: rat, in vivo, male SD rats, two-week observation, probit method
Procedure: (2) Groups of five male SD-strain rats weighing 280-360 g were used. The animals were fasted for 16-18 hours (from the previous day) and then orally given the test compound. The LD50 values were calculated by the probit method based on the mortality observed within the succeeding two-week period.

[5] = 10 mg/kg, oral twice, *p < 0.01 vs control
[6] = 30 mg/kg, oral twice, *p < 0.01 vs control
[7] = 100 mg/kg, oral twice, *p < 0.01 vs control
[8] = 1 mg/kg, oral twice, *p < 0.01 vs control
[9] = 3 mg/kg, oral twice, *p < 0.01 vs control

SMILES | Immobility Time (mean ± S.E.) (rats [1]; [5]) [s] | Immobility Time (mean ± S.E.) (rats [1]; [6]) [s] | Immobility Time (mean ± S.E.) (rats [1]; [7]) [s] | Effect on the immobility time in the forced swimming test (in words) (rats [1]; oral twice) | No. of escape failures (mean ± S.E.) (rats [2]; 1 mg/kg) | No. of escape failures (mean ± S.E.) (rats [2]; 3 mg/kg) | Effect on failure to escape in the learned helplessness test (in words) (rats [2]; 10 mg/kg, oral) | No. of escape failures (mean ± S.E.) (rats [2]; 10 mg/kg, *p < 0.01) | Immobility Time (mean ± S.E.) (rats [1]; [8]) [s] | Immobility Time (mean ± S.E.) (rats [1]; [9]) [s] | Immobility Time (mean ± S.E.) (rats [1]; 50 mg/kg, oral twice, *p < 0.01 vs control) [s] | LD50 at 336 h [3] [mg/kg] | LD50 at 336 h [4] [mg/kg] | Immobility Time (mean ± S.E.) (rats [1]; 0.3 mg/kg, oral twice (after Session I and 1 hr before Session II)) [s] | Immobility Time (mean ± S.E.) (rats [1]; 300 mg/kg, oral twice) [s]
COc1ccc(C(=O)N2CCCC2=O)cc1 [aniracetam] | 168.9 ± 18.0 | 162.6 ± 14.5 | 175.6 ± 13.8 | did not influence the immobility time |  |  |  |  |  |  |  |  |  |  | 
CNCCCN1c2ccccc2CCc2ccccc21 [desipramine] | 54.7 ± 15.8 | 34.8 ± 12.2 |  | shortened the immobility time significantly and dose dependently at 3 mg/kg and higher doses | 32.10 ± 2.66 | 19.00 ± 5.65 | significant inhibitory effects on this failure to escape at 10 mg/kg | 0.60 ± 0.27 | 134.2 ± 20.8 | 83.2 ± 16.1 | 41.8 ± 9.8 |  |  |  | 
O=C1CC[C@H](C(=O)N2CCCCC2)N1 [Compound No. 2, D-(+)-1-(2-Pyrrolidone-5-carbonyl)piperidine] | 93.7 ± 13.4 | 61.3 ± 8.5 | 53.8 ± 12.6 |  | 20.20 ± 4.89 | 13.60 ± 4.15 |  | 0.90 ± 0.69 | 119.4 ± 11.0 | 82.2 ± 18.1 |  | 4160 | ≥ 5000 | 153.0 ± 17.2 | 
COC1=C(OC)C(=O)C(CCCCCCCCCCO)=C(C)C1=O [idebenone] |  | 178.2 ± 17.6 | 154.4 ± 17.4 | did not influence the immobility time |  |  |  |  |  |  |  |  |  |  | 180.9 ± 13.9
